Results: patent US5582997A, “Lysine/leucine polypeptides, mixture sets and libraries thereof” (priority 1994, dated 1996)
Where no end group is shown, it is not given here.

Columns and labels:
[1] = Decarboxylase-like activity: catalysed decarboxylation of oxalacetate; format: biochemical; details: for kcat × 10^3 (S^-1): values are kcat × 10^3
Procedure: Each peptide mixture was assayed at 0.2 mM in the presence of 11.4 mM of oxalacetic acid (C4 H4 O5) at pH 7.0 (dilution done in PBS--35 mM phosphate buffer--0.15M NaCl) and 22° C. The kinetics of the decarboxylation reaction were monitored by UV spectroscopy at 280 nm for 45 minutes and the initial rate "v" was calculated directly from the kinetic software included with the spectrophotometer (Hewlett Packard Diode Array Spectrophotometer 8452A).
Based upon the scanning assay studies, a series of 144 individual polypeptides was prepared and assayed as above except that the oxalacetic acid concentration was 11.5 mM. These polypeptides had the sequence of SEQ ID NO:2 with residues at positions Xaa^6 being Glu, Lys or Trp; residues at Xaa^9 being Ala, Asn or Trp; residues at Xaa^13 being Glu, Gln, Val or Trp; and residues at position Xaa^16 being Asp, Met, Gln or Arg (3×3×4×4=144).

[2] = system: Staphylococcus aureus (ATCC 29213); format: cell-based; details: for IC50 (μg/ml) against S. aureus: individual polypeptides
Procedure: The polypeptide libraries of Example 1 were assayed for activity against Staphylococcus aureus [(ATCC 29213); ATCC, 12301 Parklawn Drive, Rockville, Md.]
(§1) To initiate the exponential phase of bacterial growth prior to the assay, a sample of bacteria grown overnight (about 18 hours) at 37° C. in Mueller Hinton broth (MH-Becton Dickinson Microbiology Systems) was reinoculated and incubated at 37° C. A final concentration of […] was used in all assays, vortexed and diluted 10-fold in Yeast Media (YM) broth (Difco Laboratories, Detroit, Mich.), for an approximate final concentration of 10^5 to 5×10^5 CFU/ml. The assays were carried out in 96-well tissue culture plates (Costar, Pleasanton, Calif.), as described in Blondelle et al., Biochem., 31:12688-12694 (1992). In brief, a bacterial suspension in 2× broth was added to the polypeptides mixture sets at concentrations derived from serial two-fold dilutions varying from 1000 μg/ml to 4 μg/ml. The plates were then incubated 21 hours at 37° C. The relative percent growth of the bacteria was determined by the optical density at 620 nm (OD620) using a Titertek Multiskan Plus apparatus (Flow Laboratories, McLean, Va.). The concentration necessary to inhibit 50 percent bacterial growth (IC50) was then calculated using the software program Graphpad (ISI, San Diego, Calif.).

[3] = system: E. coli ATCC 25922; format: cell-based; details: for IC50 (μg/ml) against E. coli: individual polypeptides
Procedure: as §1
Studies similar to those with S. aureus were carried out using E. coli ATCC 25922. Here, results were not as dramatic, but enhancements in activity of about 2-fold were observed using the set libraries of Example 1.

[4] = system: human erythrocytes (red blood cells; RBCs); test: Hemolytic activity; format: cell-based; details: for HC50 (μg/ml) against Erythrocytes: red cells of human
Procedure: The hemolytic activities of the polypeptide mixture sets were determined by using human erythrocytes (red blood cells; RBCs). The cells were washed three times with phosphate-buffered saline (PBS/35 mM phosphate buffer--0.15M NaCl, pH 7.0) and resuspended in PBS. The hemolytic activity of the polypeptide sets were determined as described in Blondelle et al., Biochem. Biophys. Acta, 1202:331-336 (1993) using 96 well tissue culture plates. In brief, 100 μl of 0.5 percent RBC solution were added to an equal volume of peptides in PBS. The plates were incubated for one hour at 37° C. and the optical density (OD) of the supernatant was measured at 414 nm. The concentration in peptide necessary to lyse 50 percent RBCs (HD50) was then determined for each peptide using a sigmoidal curve fitting method (Graphpad).

Row | Substance | IC50 (μg/ml) against E. coli [3] | IC50 (μg/ml) against S. aureus [2] | HC50 (μg/ml) against Erythrocytes [4] | also measured
1 | YKLLKELLAKLKWLLRKL-NH2 [YKLLKELLAKLKWLLRKL-NH2] |  |  |  | Kcat /Km (S^-1 M^-1) ([1]; Table 4): 2.66 S^-1 M^-1; Km ([1]; Table 4): 5.66 mM; kcat × 10^3 (S^-1) ([1]; Table 4): 15.08 S^-1
2 | YKLLKKLLKKLKKLLKKL-NH2 [SEQ ID NO: 9, YKLLKKLLKKLKKLLKKL-NH2, reference compound] | 9 µg/mL |  |  | IC50 value ([2]; ATCC 29213): 16 µg/mL; IC50 ([3]; ATCC 25922, 18 h): 9 µg/mL; HD50 value [4]: 27 µg/mL; Kcat /Km (S^-1 M^-1) ([1]; Table 3): 0.70 S^-1 M^-1; Km ([1]; Table 3, 0.2 mM peptide, oxalacetic acid 2.8 to 22.8 mM, pH 7.0, 22° C.): 13.5 mM; kcat × 10^3 (S^-1) ([1]; Table 3): 9.5 S^-1
3 | YKLLKLLLPKLKGLLFKL-NH2 [SEQ ID NO: 3, YKLLKLLLPKLKGLLFKL] | 2.40 µg/mL | 1.71 µg/mL | 24.41 µg/mL | 
4 | YKLLKLLLPKLKGLLIKL-NH2 [SEQ ID NO: 4, YKLLKLLLPKLKGLLIKL] | 3.61 µg/mL | 2.52 µg/mL | 28.41 µg/mL | 
5 | YKLLKLLLPKLKGLLPKL-NH2 [SEQ ID NO: 5, YKLLKLLLPKLKGLLPKL] | 2.65 µg/mL | 5.14 µg/mL | > 125 µg/mL | 
6 | YKLLKLLLPKLKPLLFKL-NH2 [SEQ ID NO: 6, YKLLKLLLPKLKPLLFKL] | 1.98 µg/mL | 2.11 µg/mL | 54.74 µg/mL | 
7 | YKLLKLLLPKLKPLLIKL-NH2 [SEQ ID NO: 7, YKLLKLLLPKLKPLLIKL] | 1.87 µg/mL | 2.81 µg/mL | 68.90 µg/mL | 
8 | YKLLKLLLPKLKPLLPKL-NH2 [SEQ ID NO: 8, YKLLKLLLPKLKPLLPKL] | 3.14 µg/mL | 22.82 µg/mL | > 125 µg/mL | Kcat /Km (S^-1 M^-1) ([1]; Table 4): 0.53 S^-1 M^-1; Km ([1]; Table 4): 8 mM; kcat × 10^3 (S^-1) ([1]; Table 4): 4.22 S^-1
